Activity calls are given as the source filed them. No cut-off for these calls is given here.
Experiments:
[1] = target: DNA (cytosine-5)-methyltransferase 3A (Homo sapiens) (UniProt Q9Y6K1); experiment: Inhibition of hDNMT3A-c using SAM and oligonucleotide with CpG site at 10 uM incubated for 2 hrs by fluorescence-based assay relative to control
[2] = target: DNA (cytosine-5)-methyltransferase 3A (Homo sapiens) (UniProt Q9Y6K1); experiment: Inhibition of hDNMT3A-c using SAM and oligonucleotide with CpG site at 32 uM incubated for 2 hrs by fluorescence-based assay relative to control
[3] = Stability of compound in DNMT methylation buffer by HPLC analysis; assay type: physicochemical
[4] = Stability of the compound in HEPES buffer incubated for 2 hrs by measuring inhibition of DNMT (unknown origin) at 10 uM by HPLC analysis; assay type: physicochemical
[5] = Stability of the compound at pH 5.3; assay type: physicochemical; conditions: buffer
[6] = Stability of the compound in HEPES buffer incubated for 2 hrs by measuring inhibition of DNMT (unknown origin) at 32 uM by HPLC analysis; assay type: physicochemical

Chain of DNA (cytosine-5)-methyltransferase 3A (Homo sapiens) (Q9Y6K1 whole entry, looked up): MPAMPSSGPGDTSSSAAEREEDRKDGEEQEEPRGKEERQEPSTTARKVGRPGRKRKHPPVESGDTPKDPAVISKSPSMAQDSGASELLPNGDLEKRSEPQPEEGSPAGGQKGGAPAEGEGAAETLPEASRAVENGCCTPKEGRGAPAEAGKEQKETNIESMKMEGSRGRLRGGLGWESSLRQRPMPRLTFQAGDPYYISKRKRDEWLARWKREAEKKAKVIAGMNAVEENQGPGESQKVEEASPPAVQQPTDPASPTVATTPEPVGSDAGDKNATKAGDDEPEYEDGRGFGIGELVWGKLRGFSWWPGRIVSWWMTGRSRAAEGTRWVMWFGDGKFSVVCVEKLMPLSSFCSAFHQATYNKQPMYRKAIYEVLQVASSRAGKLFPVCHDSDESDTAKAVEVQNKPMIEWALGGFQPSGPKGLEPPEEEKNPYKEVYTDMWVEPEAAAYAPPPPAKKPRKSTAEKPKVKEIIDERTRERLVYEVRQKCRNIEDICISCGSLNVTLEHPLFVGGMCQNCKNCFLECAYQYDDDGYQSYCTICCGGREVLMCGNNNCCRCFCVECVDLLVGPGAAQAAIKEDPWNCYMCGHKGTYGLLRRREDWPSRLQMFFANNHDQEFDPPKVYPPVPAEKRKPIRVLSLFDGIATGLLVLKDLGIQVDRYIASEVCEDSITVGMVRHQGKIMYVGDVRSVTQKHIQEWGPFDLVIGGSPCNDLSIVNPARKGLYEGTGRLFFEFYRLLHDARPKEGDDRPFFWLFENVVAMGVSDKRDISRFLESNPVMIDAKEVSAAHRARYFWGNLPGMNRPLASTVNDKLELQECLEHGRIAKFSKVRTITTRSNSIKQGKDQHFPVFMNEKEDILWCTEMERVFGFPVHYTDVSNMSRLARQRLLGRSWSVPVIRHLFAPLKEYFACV

Stability [4]	Stability [5]	Stability [6]	Compound	inhibition [1]	inhibition [2]	half-life [3] [min]
–	–	–	COc1cccc(C2Nc3ccccc3C(=O)C2[N+](=O)[O-])c1 (stereo unspecified)	inactive	inactive	–
–	–	–	O=C1c2ccccc2NC(c2ccccc2)C1[N+](=O)[O-] (stereo unspecified)	inactive	inactive	–
–	–	–	COc1cccc(C2Nc3ccccc3C(=O)C2(Cl)[N+](=O)[O-])c1 (racemic)	42%	56%	138
–	–	–	O=C1c2ccccc2NC(c2ccccc2)C1(Br)[N+](=O)[O-] (racemic)	55%	89%	18
Unstable	Stable	Unstable	COc1cccc(C2Nc3ccccc3C(=O)C2(Br)[N+](=O)[O-])c1 (racemic)	59%	100%	42
–	–	–	O=C1c2ccccc2S[C@@H](c2ccccc2)[C@@]1(Br)[N+](=O)[O-] (relative stereo)	42%	68%	12
–	–	–	O=C1c2ccccc2S[C@@H](c2ccccc2)[C@]1(Br)[N+](=O)[O-] (relative stereo)	51%	86%	72
–	–	–	O=C1c2ccccc2S[C@H](c2cccc([N+](=O)[O-])c2)[C@@]1(Br)[N+](=O)[O-] (relative stereo)	27%	59%	54
–	–	–	O=C1c2ccccc2S[C@@H](c2ccccc2F)[C@]1(Br)[N+](=O)[O-] (relative stereo)	32%	67%	48
–	–	–	O=C1c2ccccc2S[C@@H](c2cccc(C(F)(F)F)c2)[C@@]1(Br)[N+](=O)[O-] (relative stereo)	35%	63%	12
–	–	–	O=C1c2ccccc2S[C@@H](c2cccc(C(F)(F)F)c2)[C@]1(Br)[N+](=O)[O-] (relative stereo)	34%	78%	192
–	–	–	O=C1c2ccccc2S[C@@H](c2ccccc2F)[C@@]1(Br)[N+](=O)[O-] (relative stereo)	42%	67%	66
–	–	–	O=C1c2ccccc2O[C@@H](c2ccccc2)[C@]1(Br)[N+](=O)[O-] (relative stereo)	69%	92%	–
–	–	–	O=C1c2ccccc2O[C@@H](c2ccccc2[N+](=O)[O-])[C@]1(Cl)[N+](=O)[O-] (relative stereo)	69%	84%	–
